Values after ≈ are worked out from the molar mass of the structure shown.
Experiments:
Assay in all cases: microbe, parasite or virus in culture
Assay type in all cases: functional
Klebsiella pneumoniae = conditions: ATCC 27736, 24 h
Description: Antibacterial activity against Klebsiella pneumoniae ATCC 27736 after 24 hrs by spectrophotometry

Staphylococcus aureus [1] = conditions: ATCC 25923, 24 h
Description: Antibacterial activity against methicillin- resistant Staphylococcus aureus ATCC 25923 after 24 hrs by spectrophotometry

Staphylococcus aureus [2] = conditions: ATCC 29213, 24 h
Description: Antibacterial activity against methicillin- resistant and vancomycin resistant Staphylococcus aureus ATCC 29213 after 24 hrs by spectrophotometry

SMILES	MIC (Klebsiella pneumoniae) [µg/mL]	MIC (Staphylococcus aureus [1]) [µg/mL]	MIC (Staphylococcus aureus [2]) [µg/mL]
O=C(O)c1cn(Cc2ccc(C(F)(F)F)cc2)c2c(F)c(N3CCN(c4nc(NCCN5CCOCC5)nc(NCCN5CCOCC5)n4)CC3)c(F)cc2c1=O	6.25 (≈ 7.79 µM)	12.5 (≈ 15.6 µM)	–
CCn1cc(C(=O)O)c(=O)c2cc(F)c(NCCN3CCOCC3)c(F)c21	1.56 (≈ 4.09 µM)	3.12 (≈ 8.18 µM)	–
CCn1cc(C(=O)O)c(=O)c2cc(F)c(N3CCN(c4cc(C)nc(NC(C)C)n4)CC3)c(F)c21	0.011 (≈ 0.0226 µM)	0.22 (≈ 0.452 µM)	0.19 (≈ 0.391 µM)
CCn1cc(C(=O)O)c(=O)c2cc(F)c(N3CCCCC3)c(F)c21	0.19 (≈ 0.565 µM)	0.19 (≈ 0.565 µM)	0.39 (≈ 1.16 µM)
CCn1cc(C(=O)O)c(=O)c2cc(F)c(N3CCN(c4ccccc4)CC3)c(F)c21	0.09 (≈ 0.218 µM)	0.39 (≈ 0.943 µM)	0.09 (≈ 0.218 µM)
Cc1cc(N2CCN(c3c(F)cc4c(=O)c(C(=O)O)cn(Cc5ccc(C(F)(F)F)cc5)c4c3F)CC2)nc(N2CCOCC2)n1	0.78 (≈ 1.21 µM)	1.56 (≈ 2.42 µM)	1.56 (≈ 2.42 µM)
CCCCNc1nc(NCCCC)nc(N2CCN(c3c(F)cc4c(=O)c(C(=O)O)cn(Cc5ccc(C(F)(F)F)cc5)c4c3F)CC2)n1	0.39 (≈ 0.566 µM)	3.12 (≈ 4.53 µM)	0.39 (≈ 0.566 µM)
CCn1cc(C(=O)O)c(=O)c2cc(F)c(N3CCN(c4cc(C)nc(NCCCN5CCOCC5)n4)CC3)c(F)c21	0.22 (≈ 0.385 µM)	0.22 (≈ 0.385 µM)	0.19 (≈ 0.332 µM)
CCCCNc1c(F)cc2c(=O)c(C(=O)O)cn(Cc3ccc(C(F)(F)F)cc3)c2c1F	> 50	> 50	–
CCN1CCN(c2c(F)cc3c(=O)c(C(=O)O)cn(CC)c3c2F)CC1	0.19 (≈ 0.52 µM)	0.78 (≈ 2.13 µM)	0.39 (≈ 1.07 µM)
CCn1cc(C(=O)O)c(=O)c2cc(F)c(N3CCN(c4nc(NCCCN5CCOCC5)nc(NCCCN5CCOCC5)n4)CC3)c(F)c21	12.5 (≈ 17.8 µM)	12.5 (≈ 17.8 µM)	–
CCn1cc(C(=O)O)c(=O)c2cc(F)c(N3CCN(c4cc(C)nc(NCCN5CCOCC5)n4)CC3)c(F)c21	0.22 (≈ 0.395 µM)	0.22 (≈ 0.395 µM)	0.19 (≈ 0.341 µM)
O=C(O)c1cn(Cc2ccc(C(F)(F)F)cc2)c2c(F)c(N3CCN(Cc4ccccc4)CC3)c(F)cc2c1=O	1.56 (≈ 2.8 µM)	1.56 (≈ 2.8 µM)	–
O=C(O)c1cn(Cc2ccc(C(F)(F)F)cc2)c2c(F)c(N3CCN(c4nc(NCCCN5CCOCC5)nc(NCCCN5CCOCC5)n4)CC3)c(F)cc2c1=O	50 (≈ 60.2 µM)	> 50	–
CCn1cc(C(=O)O)c(=O)c2cc(F)c(N3CCN(c4nc(NC(C)C)nc(NC(C)C)n4)CC3)c(F)c21	0.39 (≈ 0.735 µM)	0.39 (≈ 0.735 µM)	0.78 (≈ 1.47 µM)
Cc1cc(N2CCN(c3c(F)cc4c(=O)c(C(=O)O)cn(Cc5ccc(C(F)(F)F)cc5)c4c3F)CC2)nc(N2CCCCC2)n1	0.39 (≈ 0.607 µM)	0.78 (≈ 1.21 µM)	0.39 (≈ 0.607 µM)
CCCCNc1nc(C)cc(N2CCN(c3c(F)cc4c(=O)c(C(=O)O)cn(CC)c4c3F)CC2)n1	0.78 (≈ 1.56 µM)	0.78 (≈ 1.56 µM)	0.09 (≈ 0.18 µM)
CCCNc1c(F)cc2c(=O)c(C(=O)O)cn(Cc3ccc(C(F)(F)F)cc3)c2c1F	3.12 (≈ 7.08 µM)	1.56 (≈ 3.54 µM)	–
O=C(O)c1cn(Cc2ccc(C(F)(F)F)cc2)c2c(F)c(NCCCN3CCOCC3)c(F)cc2c1=O	25 (≈ 47.6 µM)	> 50	–
CCn1cc(C(=O)O)c(=O)c2cc(F)c(NC(C)C)c(F)c21	0.09 (≈ 0.29 µM)	0.78 (≈ 2.51 µM)	0.78 (≈ 2.51 µM)
CCn1cc(C(=O)O)c(=O)c2cc(F)c(N3CCN(c4cc(C)nc(N5CCCCC5)n4)CC3)c(F)c21	0.045 (≈ 0.0878 µM)	0.39 (≈ 0.761 µM)	0.39 (≈ 0.761 µM)

SMILES	MIC (Klebsiella pneumoniae) [µg/mL]	MIC (Staphylococcus aureus [1]) [µg/mL]	MIC (Staphylococcus aureus [2]) [µg/mL]
CCCCNc1c(F)cc2c(=O)c(C(=O)O)cn(CC)c2c1F	0.022 (≈ 0.0678 µM)	0.39 (≈ 1.2 µM)	0.39 (≈ 1.2 µM)
CCCNc1nc(NCCC)nc(N2CCN(c3c(F)cc4c(=O)c(C(=O)O)cn(CC)c4c3F)CC2)n1	0.19 (≈ 0.358 µM)	0.78 (≈ 1.47 µM)	0.78 (≈ 1.47 µM)
CCCNc1nc(NCCC)nc(N2CCN(c3c(F)cc4c(=O)c(C(=O)O)cn(Cc5ccc(C(F)(F)F)cc5)c4c3F)CC2)n1	0.78 (≈ 1.18 µM)	1.56 (≈ 2.36 µM)	1.56 (≈ 2.36 µM)
Cc1cc(N2CCN(c3c(F)cc4c(=O)c(C(=O)O)cn(Cc5ccc(C(F)(F)F)cc5)c4c3F)CC2)nc(NC(C)(C)C)n1	0.19 (≈ 0.301 µM)	1.56 (≈ 2.47 µM)	1.56 (≈ 2.47 µM)
O=C(O)c1cn(Cc2ccc(C(F)(F)F)cc2)c2c(F)c(N3CCN(c4nc(N5CCOCC5)nc(N5CCOCC5)n4)CC3)c(F)cc2c1=O	1.56 (≈ 2.18 µM)	3.12 (≈ 4.35 µM)	1.56 (≈ 2.18 µM)
CCn1cc(C(=O)O)c(=O)c2cc(F)c(N3CCNCC3)c(F)c21	0.045 (≈ 0.133 µM)	0.78 (≈ 2.31 µM)	0.39 (≈ 1.16 µM)
CCn1cc(C(=O)O)c(=O)c2cc(F)c(N3CCN(C)CC3)c(F)c21	0.011 (≈ 0.0313 µM)	0.19 (≈ 0.541 µM)	0.19 (≈ 0.541 µM)
Cc1cc(N2CCN(c3cc4c(cc3F)c(=O)c(C(=O)O)cn4Cc3ccc(C(F)(F)F)cc3)CC2)nc(N2CCN(C)CC2)n1	6.25 (≈ 9.77 µM)	6.25 (≈ 9.77 µM)	12.5 (≈ 19.5 µM)
CCn1cc(C(=O)O)c(=O)c2cc(F)c(N3CCN(Cc4ccccc4)CC3)c(F)c21	0.011 (≈ 0.0257 µM)	0.19 (≈ 0.444 µM)	0.19 (≈ 0.444 µM)
CCn1cc(C(=O)O)c(=O)c2cc(F)c(N3CCN(c4cc(C)nc(NC(C)(C)C)n4)CC3)c(F)c21	0.78 (≈ 1.56 µM)	1.56 (≈ 3.12 µM)	0.78 (≈ 1.56 µM)
CN1CCN(c2nc(N3CCN(C)CC3)nc(N3CCN(c4cc5c(cc4F)c(=O)c(C(=O)O)cn5Cc4ccc(C(F)(F)F)cc4)CC3)n2)CC1	12.5 (≈ 17.2 µM)	25 (≈ 34.5 µM)	–
CCn1cc(C(=O)O)c(=O)c2cc(F)c(N3CCN(c4cc(C)nc(N5CCOCC5)n4)CC3)c(F)c21	0.045 (≈ 0.0875 µM)	0.39 (≈ 0.758 µM)	0.045 (≈ 0.0875 µM)
CCCNc1c(F)cc2c(=O)c(C(=O)O)cn(CC)c2c1F	0.78 (≈ 2.51 µM)	12.5 (≈ 40.3 µM)	–
O=C(O)c1cn(Cc2ccc(C(F)(F)F)cc2)c2c(F)c(N3CCCCC3)c(F)cc2c1=O	12.5 (≈ 26.8 µM)	> 50	–
CCn1cc(C(=O)O)c(=O)c2cc(F)c(N3CCOCC3)c(F)c21	0.022 (≈ 0.065 µM)	0.022 (≈ 0.065 µM)	0.045 (≈ 0.133 µM)
O=C(O)c1cn(Cc2ccc(C(F)(F)F)cc2)c2c(F)c(N3CCOCC3)c(F)cc2c1=O	12.5 (≈ 26.7 µM)	12.5 (≈ 26.7 µM)	–
CCn1cc(C(=O)O)c(=O)c2cc(F)c(N3CCN(c4nc(NCCN5CCOCC5)nc(NCCN5CCOCC5)n4)CC3)c(F)c21	0.78 (≈ 1.16 µM)	0.78 (≈ 1.16 µM)	1.56 (≈ 2.32 µM)
CCCCNc1nc(NCCCC)nc(N2CCN(c3c(F)cc4c(=O)c(C(=O)O)cn(CC)c4c3F)CC2)n1	0.39 (≈ 0.698 µM)	0.39 (≈ 0.698 µM)	0.39 (≈ 0.698 µM)
CC(C)Nc1c(F)cc2c(=O)c(C(=O)O)cn(Cc3ccc(C(F)(F)F)cc3)c2c1F	1.56 (≈ 3.54 µM)	3.12 (≈ 7.08 µM)	–
CCn1cc(C(=O)O)c(=O)c2cc(F)c(N3CCN(c4nc(NC(C)(C)C)nc(NC(C)(C)C)n4)CC3)c(F)c21	0.39 (≈ 0.698 µM)	3.12 (≈ 5.59 µM)	–
CCN1CCN(c2c(F)cc3c(=O)c(C(=O)O)cn(Cc4ccc(C(F)(F)F)cc4)c3c2F)CC1	> 50	> 50	–

SMILES	MIC (Klebsiella pneumoniae) [µg/mL]	MIC (Staphylococcus aureus [1]) [µg/mL]	MIC (Staphylococcus aureus [2]) [µg/mL]
CCCCNc1nc(C)cc(N2CCN(c3c(F)cc4c(=O)c(C(=O)O)cn(Cc5ccc(C(F)(F)F)cc5)c4c3F)CC2)n1	6.25 (≈ 9.91 µM)	6.25 (≈ 9.91 µM)	1.56 (≈ 2.47 µM)
O=C(O)c1cn(C2CC2)c2cc(N3CCNCC3)c(F)cc2c1=O [CIPROFLOXACIN]	0.19 (≈ 0.573 µM)	0.09 (≈ 0.272 µM)	0.38 (≈ 1.15 µM)
O=C(O)c1cn(Cc2ccc(C(F)(F)F)cc2)c2c(F)c(N3CCNCC3)c(F)cc2c1=O	12.5 (≈ 26.7 µM)	> 50	–
Cc1cc(N2CCN(c3c(F)cc4c(=O)c(C(=O)O)cn(Cc5ccc(C(F)(F)F)cc5)c4c3F)CC2)nc(NCCCN2CCOCC2)n1	6.25 (≈ 8.91 µM)	25 (≈ 35.6 µM)	–
CCn1cc(C(=O)O)c(=O)c2cc(F)c(N3CCN(c4cc(C)nc(N5CCN(C)CC5)n4)CC3)cc21	> 50	> 50	–
CCn1cc(C(=O)O)c(=O)c2cc(F)c(NC(C)(C)C)c(F)c21	0.09 (≈ 0.277 µM)	12.5 (≈ 38.5 µM)	–
O=C(O)c1cn(Cc2ccc(C(F)(F)F)cc2)c2c(F)c(NCCN3CCOCC3)c(F)cc2c1=O	12.5 (≈ 24.4 µM)	> 50	–
CCn1cc(C(=O)O)c(=O)c2cc(F)c(N3CCNCC3)cc21 [NORFLOXACIN]	0.39 (≈ 1.22 µM)	0.78 (≈ 2.44 µM)	1.56 (≈ 4.89 µM)
CCn1cc(C(=O)O)c(=O)c2cc(F)c(N3CCN(c4nc(N5CCCCC5)nc(N5CCCCC5)n4)CC3)c(F)c21	> 50	> 50	–
O=C(O)c1cn(Cc2ccc(C(F)(F)F)cc2)c2c(F)c(N3CCN(c4nc(N5CCCCC5)nc(N5CCCCC5)n4)CC3)c(F)cc2c1=O	50 (≈ 70.2 µM)	50 (≈ 70.2 µM)	–
CC(C)(C)Nc1c(F)cc2c(=O)c(C(=O)O)cn(Cc3ccc(C(F)(F)F)cc3)c2c1F	> 50	> 50	–
CCCNc1nc(C)cc(N2CCN(c3c(F)cc4c(=O)c(C(=O)O)cn(CC)c4c3F)CC2)n1	0.09 (≈ 0.185 µM)	0.39 (≈ 0.802 µM)	0.39 (≈ 0.802 µM)
CCn1cc(C(=O)O)c(=O)c2cc(F)c(N3CCN(c4nc(N5CCOCC5)nc(N5CCOCC5)n4)CC3)c(F)c21	3.12 (≈ 5.32 µM)	3.12 (≈ 5.32 µM)	–
CC(C)Nc1nc(NC(C)C)nc(N2CCN(c3c(F)cc4c(=O)c(C(=O)O)cn(Cc5ccc(C(F)(F)F)cc5)c4c3F)CC2)n1	0.39 (≈ 0.59 µM)	0.78 (≈ 1.18 µM)	0.78 (≈ 1.18 µM)
CN1CCN(c2c(F)cc3c(=O)c(C(=O)O)cn(Cc4ccc(C(F)(F)F)cc4)c3c2F)CC1	> 50	> 50	–
O=C(O)c1cn(Cc2ccc(C(F)(F)F)cc2)c2c(F)c(N3CCN(c4ccccc4)CC3)c(F)cc2c1=O	0.39 (≈ 0.718 µM)	0.78 (≈ 1.44 µM)	1.56 (≈ 2.87 µM)
CCn1cc(C(=O)O)c(=O)c2cc(F)c(NCCCN3CCOCC3)c(F)c21	1.56 (≈ 3.95 µM)	3.12 (≈ 7.89 µM)	–
Cc1cc(N2CCN(c3c(F)cc4c(=O)c(C(=O)O)cn(Cc5ccc(C(F)(F)F)cc5)c4c3F)CC2)nc(NC(C)C)n1	0.19 (≈ 0.308 µM)	0.78 (≈ 1.27 µM)	0.78 (≈ 1.27 µM)
CCn1cc(C(=O)O)c(=O)c2cc(F)c(N3CCN(c4nc(N5CCN(C)CC5)nc(N5CCN(C)CC5)n4)CC3)cc21	0.39 (≈ 0.656 µM)	0.39 (≈ 0.656 µM)	0.39 (≈ 0.656 µM)
Cc1cc(N2CCN(c3c(F)cc4c(=O)c(C(=O)O)cn(Cc5ccc(C(F)(F)F)cc5)c4c3F)CC2)nc(NCCN2CCOCC2)n1	1.56 (≈ 2.27 µM)	0.78 (≈ 1.13 µM)	1.56 (≈ 2.27 µM)

Reference: ChEMBL document CHEMBL1759957, “Synthesis and antibacterial evaluation of novel 8-fluoro Norfloxacin derivatives as potential probes for methicillin and vancomycin-resistant Staphylococcus aureus” (2011)
